Experimental data reported in article PMC2174006 (The Journal of Cell Biology, 2002).

Target: T1, Rab32 (Homo sapiens, UniProt Q13637)
T1 sequence (Q13637 1-225): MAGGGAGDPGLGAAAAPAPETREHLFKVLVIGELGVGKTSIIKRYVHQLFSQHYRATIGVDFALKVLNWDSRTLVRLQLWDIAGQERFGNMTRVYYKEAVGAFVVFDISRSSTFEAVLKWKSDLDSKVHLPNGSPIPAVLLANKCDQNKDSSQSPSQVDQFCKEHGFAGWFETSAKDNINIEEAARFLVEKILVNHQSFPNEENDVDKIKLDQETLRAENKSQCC
Assay: radiolabelled nucleotide dissociation
Type: binding
Settings: labelled compound ([3H]GDP); pH 7.5, 50 mM Tris-HCl, high magnesium; GST fusion

Nc1nc2c(ncn2[C@@H]2O[C@H](COP(=O)(O)OP(=O)(O)O)[C@@H](O)[C@H]2O)c(=O)[nH]1 [GDP]
t 1/2 (dissociation): 7.5 min
